# Laboratory results published in US20230404971A1, “Combination Comprising Abemaciclib and 6-(2,4-Dichlorophenyl)-5-[4-[(3S)-1-(3-Fluoropropyl)Pyrrolidin-3-yl]Oxyphenyl]-8,9-Dihydro-7H-Benzo[7]Annulene-2-Carboxylic Acid” (Sanofi, priority 2020, published 2023).
# Columns and labels:
# [1] = system: MCF7-Y537S human breast cancer cell line xenograft; assay: Anti-tumor efficacy against subcutaneous MCF7-Y537S human breast cancer cell line xenograft in female nude mice; assay type: in vivo, female BALB/c nude mice; set-up: key to Biological Interpretation: Active: ΔT/ΔC≤40% is considered as therapeutically active; Very active: ΔT/ΔC<0% is considered as tumor regression (very active); Inactive: ΔT/ΔC>40% is considered as therapeutically inactive; settings: for Tumor volume changes from baseline, Median: n = 7
# Protocol: In the present study, the anti-tumor efficacy of 6-(2,4-dichlorophenyl)-5-[4-[(3S)-1-(3-fluoropropyl)pyrrolidin-3-yl]oxyphenyl]-8,9-dihydro-7H-benzo[7]annulene-2-carboxylic acid (“compound (1)”), combined with abemaciclib, was investigated after 22 days treatment against a subcutaneous MCF7-Y537S human breast cancer cell line xenograft in female nude mice.
# The treated groups included compound (1) at 20 mg/kg alone, abemaciclib at 70 mg/kg alone, and the combination of compound (1) and abemaciclib at the same dose and regime,
# Compound (1) was orally dosed twice a day (BID) and abemaciclib was orally dosed once a day (QD) for 22 days. Anti-tumor efficacy was evaluated by tumor volume measurement.
# Female BALB/c nude mice were obtained from Shanghai Sino-British SIPPR/BK Laboratory Animal Co., LTD (Shanghai, CHINA). Animals were allowed to acclimate for at least four days before the study enrollment. Mice were 6 to 8 weeks old and weighed between 18 and 24 grams at the beginning of the treatments. These animals were housed under conditions outlined in the guidelines approved by the Institutional Animal Care and Use Committee (IACUC) of WuXi AppTec following the guidance of the Association for Assessment and Accreditation of Laboratory Animal Care (AAALAC).
# Parental MCF7 cells were obtained from the American Type Culture Collection (ATCC® HTB-22™). MCF7-Y537S (ESR1) cell line was MCF7 cells expressing the ER.Y537S variant that was generated by Sanofi Biology Discovery Group. Y537S mutation was introduced in ESR1 construct (GenBank NM_000125.3) by site directed mutagenesis (Toy W. et al., Cancer Discovery, 2017, 7, 277-287). The construct was transfected in MCF7 cells which were selected for their growth in absence of estradiol. MCF-Y537S is an ESR1 mutation that confers estrogen-independent activity to ERα (Estrogen Receptor alpha) and contributes to endocrine resistant disease (Robinson D. R. et al., Nat Genet., 2013, 45 (12), 1446-1451). The cells were grown in Eagle's Minimum Essential Medium (EMEM) supplemented with 10% fetal bovine serum (FBS), human Insulin, in 5% CO2 at 37° C. The cells were harvested in 0.25% Trypsin EDTA and washed by Phosphate Buffered Saline (PBS) and re-suspended in PBS with 75% Matrigel. The cells (20×10^6 cells/per mouse) were subcutaneously (SC) implanted into the right flank of female nude mice.
# When the MCF7-Y537S tumors were established, the tumors were reserved as tumor stocks for fragment implantation. The tumors were serially propagated through fragment tissue transplantation subcutaneously. The fragment tumor tissues were subcutaneously implanted into the right flank of female nude mice. 28 mice were assigned in this experiment.
# Abemaciclib (Manufacturer: Sanofi; Lot number: VAC.DLE20.006.1) was formulated in 40% SBE-β-CD in HCl 0.1N pH 3.0. Compound (1) was prepared in 5% Solutol HS15 (purchased from Sigma) at pH 3.0.
# Dose volume for compound (1) and abemaciclib for oral administration: 10 ml/kg by oral gavage.
# Doses: compound (1) at 20 mg/kg and abemaciclib at 70 mg/kg in the above volume.
# The animals required for experiment (plus extra) were pooled and implanted with MCF7-Y537S tumor fragment tissues. On day 0 (20 days post implantation), the mice were pooled and randomly distributed to the treatment and control groups (7 mice per group), where median tumor volumes for each group was 173 mm^3. Treatments of compound (1) and abemaciclib were initiated on day 0. Compound (1) was orally administered at 20 mg/kg BID (8 hours apart) and abemaciclib was orally administered at 70 mg/kg QD, for 22 days. Animal body weight was assessed daily.
# The dosages are expressed in mg/kg and based on daily body weight per animal. Vehicle treated animals were used as controls. Mice were checked daily and adverse clinical reactions noted. Individual mice were weighed daily until the end of the experiment. Mice would be euthanized when morbid or weight loss ≥20% was observed. […]
# [2] = Tolerability (body weight, deaths) in the MCF7-Y537S xenograft study; assay type: in vivo
# Protocol: The animals required for experiment (plus extra) were pooled and implanted with MCF7-Y537S tumor fragment tissues. […] Animal body weight was assessed daily.
# The dosages are expressed in mg/kg and based on daily body weight per animal. Vehicle treated animals were used as controls. Mice were checked daily and adverse clinical reactions noted. Individual mice were weighed daily until the end of the experiment. Mice would be euthanized when morbid or weight loss ≥20% was observed. Tumors were measured with a caliper twice weekly until final sacrifice. When a tumor size reached approximately 2000 mm^3 or when there are animal health issues (40% area of a tumor ulcerated), animals would be euthanized and date of death recorded. Solid tumor volumes were estimated from two-dimensional tumor measurements and calculated according to the following equation: […]
# Animal body weight included the tumor weight.
# [3] = day 22, PO for 22 days, compound (1) 20 mg/kg BID, abemaciclib 70 mg/kg QD, alone or combined
structure (smiles),measurement,setting,value
"CCN1CCN(Cc2ccc(Nc3ncc(F)c(-c4cc(F)c5nc(C)n(C(C)C)c5c4)n3)nc2)CC1 [Abemaciclib, N-{5-[(4-ethylpiperazin-1-yl)methyl]pyridin-2-yl}-5-fluoro-4-[4-fluoro-2-methyl-1-(propan-2-yl)-1H-benzimidazol-6-yl]pyrimidin-2-amine]","Tumor volume changes from baseline, Median","[1]; Day 4, compound (1) 20 mg/kg BID, abemaciclib 70 mg/kg QD, alone or combined",9.0 mm^3
same,"Tumor volume changes from baseline, Median","[1]; Day 8, compound (1) 20 mg/kg BID, abemaciclib 70 mg/kg QD, alone or combined",40.0 mm^3
same,"Tumor volume changes from baseline, Median","[1]; Day 11, compound (1) 20 mg/kg BID, abemaciclib 70 mg/kg QD, alone or combined",83.0 mm^3
same,"Tumor volume changes from baseline, Median","[1]; Day 15, compound (1) 20 mg/kg BID, abemaciclib 70 mg/kg QD, alone or combined",119.0 mm^3
same,"Tumor volume changes from baseline, Median","[1]; Day 18, compound (1) 20 mg/kg BID, abemaciclib 70 mg/kg QD, alone or combined",150.0 mm^3
same,"Tumor volume changes from baseline, Median","[1]; Day 22, compound (1) 20 mg/kg BID, abemaciclib 70 mg/kg QD, alone or combined",199.0 mm^3
same,Regressions Complete,"[1]; animals with complete regression / animals in group, 22 days treatment",0/7
same,Regressions Partial,"[1]; animals with partial regression / animals in group, 22 days treatment",0/7
same,Biological Interpretation,[1]; based on ΔT/ΔC at day 22,Active
same,Median % of regressions on day 22,[1]; [3],0%
same,ΔT/ΔC in % at day 22,[1]; [3],19%
same,Anti-tumor effect on tumor growth (in words),"[1]; day 22, versus control",statistically significant anti-tumor efficacy
same,Body weight loss,"[2]; compound (1) 20 mg/kg BID, abemaciclib 70 mg/kg QD, alone or combined, 22 days, PO",no significant body weight loss
same,Unscheduled death (Day of death),"[2]; deaths / animals in group, 22 days treatment",0/7
